Values quoted from earlier work, collected in patent US20070196481A1, “Sustained-release tablet composition” (priority 2002, published 2007).
Where a name gives a salt, the structure may show the parent alone.

Structure (SMILES): CCCNC1CCc2nc(N)sc2C1 (centres unmarked) [pramipexole dihydrochloride]
- solubility in water: about 200 mg/ml

Structure (SMILES): CCOc1ccccc1OC(c1ccccc1)C1CNCCO1 (centres unmarked) [reboxetine mesylate]
- solubility in water: about 250 mg/ml
